The subject of series [1] is Paracentrotus lividus eggs. The series can be described thus: Inhibition of sea urchin egg division. Type of series: cell-based. The procedure:
(§1) For cytotoxic assays on sea urchins, meroterpenes were dissolved in an egg suspension (described in the experimental section), and their ability to inhibit 50% of cell division (IC50) was estimated. Each experiment was carried out in triplicate and an average taken.
(§2) For antiproliferative assays on sea urchin eggs, we used a previously described method.

Series [2] deals with Sphaerechinus granularis eggs. The series can be described thus: Inhibition of sea urchin egg division. It counts as cell-based. To be noted: for IC50: read-out: IC50 S. granularis. The procedure:
as §1, §2

In series [3] the test system is MCF7 breast adenocarcinoma cells. The series can be described thus: Resazurin reduction test (RRT) cytotoxicity. It counts as cell-based, human. To be noted: for IC50: Homo sapiens. The procedure: (§3) To provide information on their antiproliferative activity against solid cancers, the six meroterpenes were tested on three human carcinoma cell lines corresponding to cancers commonly observed in Western countries: MCF7 (breast), PA1 (ovary) and PC3 (prostate). To obtain additional information on their specificity for human cell lines and their specificity for cancer versus normal cell lines, each compound was tested versus L-929 murine immortalized cells and human normal fibroblasts. To mimic what happens in vivo, assays were carried out on exponentially growing cells cultured in the presence of 10% serum. The growth inhibitory effect was determined by measuring, after a 48 hour exposure to each chemical, the metabolic activity of treated and control cultures using the resazurin reduction test (RRT), which measures the amount of fluorescent resofurin produced by living cells. […] A dose-dependent inhibition of cell proliferation was only observed for epiconicol (3a). […] The toxicity of epiconicol observed in our model is in agreement with data obtained by Caroll and co-workers on a panel of cancer cells.
(§4) Human primary fibroblasts were purchased from Biopredic International (Rennes, France). Immortalized murine L929 cells and human MCF7 breast adenocarcinoma, PA1 ovary teratocarcinoma and PC3 androgen-resistant prostate carcinoma cells were obtained from the European Collection of Cell Cultures (ECACC, Salibury, UK). All were cultured at 37 °C under 5% CO2 and maintained in Eagle’s minimum essential medium (Gibco-BRL, Paisley, Scotland) supplemented with 10% fetal calf serum, vitamins and antibiotics (Gibco™, Cergy-Pontoise, France) as described previously.
(§5) The cytotoxicity of each treatment was determined after a 48 h exposure to each chemical (6 concentrations in triplicate, each in DMSO 0.5%) by means of the resazurin reduction test (RRT) that measures the amount of fluorescent resorufin produced by living cells. Assays were carried out at 530/590 nm accordingly to the procedure described by Barthomeuf et al.. IC50 values (mean ± S.D.) were calculated with the ALLFIT program and were expressed in μM.
In general terms: Resazurin is reduced to fluorescent resorufin, in cell work by metabolically active cells.

For series [4], the system named is PA1 ovary teratocarcinoma cells. The series can be described thus: Resazurin reduction test (RRT) cytotoxicity. Type of series: cell-based, human. The note with it: for IC50: Homo sapiens. The procedure: as §3, §4, §5
Series [5] deals with L-929 murine immortalized cells. Briefly: Resazurin reduction test (RRT) cytotoxicity. The note with it: Mus musculus. Type of series: cell-based. The procedure: as §3, §4, §5
Series [6] relates to PC3 androgen-resistant prostate carcinoma cells. The series can be described thus: Resazurin reduction test (RRT) cytotoxicity. Type of series: cell-based. The note with it: Homo sapiens. The procedure: as §3, §4, §5
In series [7] the test system is human normal fibroblasts. The series can be described thus: Resazurin reduction test (RRT) cytotoxicity. It counts as cell-based. To be noted: Fibroblast. The procedure: as §3, §4, §5
Series [8] has as its system S.s granularis eggs. Briefly: HPLC analysis of cytoplasmic extracts of treated sea urchin eggs. Type of series: in vitro ADME, Sphaerechinus granularis. The note with it: eggs treated with 5 μM. The procedure: To test the latter hypothesis, S.s granularis eggs were treated with 5 μM of methoxyconidiol, a concentration that inhibits their division. Sea urchin eggs were incubated 1, 40 and 90 minutes post-fertilization (p.f.) in the presence of methoxyconidiol. Cytoplasmic extracts of treated and control eggs were further prepared. Organic extracts of the cytoplasmic preparations were finally obtained and analyzed by HPLC (Figure 3).
Figure 3 HPLC analysis of methoxyconidiol (System WATERS, column: synergy 4 μm RP max; elution water: methanol under a gradient; UV detection 285 nm; flow: 0.3 mL/min) A: control compound (methoxyconidiol) B: analysis after Solid Phase Extraction at 1, 40 and 90 minutes after fertilization (min p.f.).
Preparation of cytoplasmic extracts was based on the technique described by Collas and Poccia. Gametes of P. lividus were collected in two separate beakers. Sperm was maintained undiluted on ice and eggs were stored at 19 °C until use. Sperm was diluted to 10% in Filtered Sea Water (FSW) and eggs were at 26 eggs/μL in FSW. […]
Cytoplasmic extracts of treated and control eggs were extracted with CH3OH and CH2Cl2 and analyzed by HPLC. […] This fraction was analyzed in HPLC (column: Phenomenex synergy 4μ max RP; elution with water and methanol under gradient, starting from 30% to 0% of water during 15 minutes; flow: 0.3 mL/min; detection photodiode array, UV at 285 nm).

Series [9] relates to sea urchin embryos. Further details: method as in PMID 17448456. To be noted: cited from earlier work.
In series [10] the test system is Escherichia coli. The series can be described thus: Microtiter Broth Dilution antibacterial assay. The note with it: for antibacterial effect (in words): E. coli. Type of series: cell-based. The procedure:
(§6) The Microtiter Broth Dilution Method on gram negative (Escherichia coli) and gram positive (Micrococcus luteus) bacteria was used. Meroterpenes dissolved in DMSO were added to bacteria suspensions (5:100 v:v) for 24 hours. The assay was carried out in triplicate. Bacterial growth was evaluated by absorbance measurement (630 nm). The minimum concentration that inhibits (MIC) bacterial growth was determined for each compound on each bacterial strain.
(§7) The antibacterial assay used was based on the previously described method published by the […].
For orientation: In broth dilution the organism is exposed to a series of concentrations in liquid medium.

Series [11] deals with Micrococcus luteus. The series can be described thus: Microtiter Broth Dilution antibacterial assay. The note with it: for antibacterial effect (in words): M. luteus; for MIC: Micrococcus luteus, 24 h. It counts as cell-based. The procedure: as §6, §7
The subject of series [12] is Micrococus luteus. Further details: method as in PMID 17448456. To be noted: cited from earlier work.
Series [13] relates to Staphyclococcus aureus. Further details: method as in PMID 3404153, PMID 7608321. To be noted: cited from earlier work.
Series [14] concerns Streptococcus faecalis. Further details: method as in PMID 3404153, PMID 7608321. To be noted: cited from earlier work.
In series [15] the test system is MCF7, PA1, PC3, L-929 cells and human normal fibroblasts. The series can be described thus: Resazurin reduction test (RRT) cytotoxicity, whole panel of cell lines. It counts as cell-based. To be noted: span over the cell lines, 48 hour exposure, read-out: IC50, varied with the cell lines. The procedure:
To provide information on their antiproliferative activity against solid cancers, the six meroterpenes were tested on three human carcinoma cell lines corresponding to cancers commonly observed in Western countries: MCF7 (breast), PA1 (ovary) and PC3 (prostate). To obtain additional information on their specificity for human cell lines and their specificity for cancer versus normal cell lines, each compound was tested versus L-929 murine immortalized cells and human normal fibroblasts. To mimic what happens in vivo, assays were carried out on exponentially growing cells cultured in the presence of 10% serum. The growth inhibitory effect was determined by measuring, after a 48 hour exposure to each chemical, the metabolic activity of treated and control cultures using the resazurin reduction test (RRT), which measures the amount of fluorescent resofurin produced by living cells. […] A dose-dependent inhibition of cell proliferation was only observed for epiconicol (3a). […]
The cytotoxicity of each treatment was determined after a 48 h exposure to each chemical (6 concentrations in triplicate, each in DMSO 0.5%) by means of the resazurin reduction test (RRT) that measures the amount of fluorescent resorufin produced by living cells. […] IC50 values (mean ± S.D.) were calculated with the ALLFIT program and were expressed in μM.

[16] abbreviates: Paracentrotus lividus, 85 min, read-out: IC50 P. lividus, egg division, 85 minutes after fertilization.
[17] abbreviates: Sphaerechinus granularis, 85 min.

Consider seven compounds from publication PMC2852842, “Marine Natural Meroterpenes: Synthesis and Antiproliferative Activity” (Marine Drugs, 2010).

Converted amounts (≈) assume the structure as drawn. Where two headings read alike, the source gives them in different places.

The term IC50 denotes the point on the concentration scale where inhibition reaches its midpoint. In general, melting point refers to the temperature of the solid-liquid transition. Compound `COC(C)(C)[C@H]1CCC(C)=C[C@H]1c1cc(O)ccc1O` [5a, methoxyconidiol] registered a melting point of 197 °C. Also, in series [1] (egg division, 85 minutes after fertilization, listed as methoxyconidiol, read-out: IC50 P. lividus), the half-inhibitory concentration (IC50) stood at 0.8 µM. For the same compound, the IC50 in series [1] (egg division, 85 minutes after fertilization, read-out: IC50 P. lividus) amounted to 4.3 ± 0.1 µM. For the same compound, the concentration for half-maximal inhibition (IC50) in series [2] (egg division, 85 minutes after fertilization, listed as methoxyconidiol) was determined as 4.3 µM. Also, the concentration for half-maximal inhibition (IC50) in series [2] (egg division, 85 minutes after fertilization) came to 0.8 µM. For the same compound, the IC50 in series [3] (MCF7, 48 hour exposure, 10% serum, RRT, read-out: IC50) is above 100 µM. The 50% inhibitory concentration (IC50) in [4] (PA1, 48 hour exposure, 10% serum, RRT, read-out: IC50) is above 100 µM. For the same compound, the IC50 in series [5] (L929, L-929, 48 hour exposure, 10% serum, RRT, read-out: IC50) was above 100 µM. The IC50 in series [6] (PC3, 48 hour exposure, 10% serum, RRT, read-out: IC50) is above 100 µM. Moreover, the half-inhibitory concentration (IC50) in [7] (human normal fibroblasts, 48 hour exposure, 10% serum, RRT, read-out: IC50) is above 100 µM. For the same compound, the “level of the compound in cytoplasmic extracts during incubation” value in [8] (1, 40 and 90 minutes post-fertilization, HPLC) is reported as “did not decrease significantly”. Moreover, in [8] (presence in the cytoplasm), the “penetration through sea urchin cell membranes” value was “penetrates through sea urchin cell membranes”. Further, in series [9], the “effect on sea urchin embryos during cell division” value was “disturbs mitotic spindle assembly leading to a cell cycle arrest during metaphase/anaphase transition”.

For the compound `COc1ccc(O)c([C@@H]2C=C(C)CC[C@@H]2C(C)(C)OC)c1` (relative stereo) [5b], the IC50 is above 25 µM in series [1] (Paracentrotus lividus, 85 min, egg division, 85 minutes after fertilization, read-out: IC50 P. lividus) and above 25 µM in series [2] (Sphaerechinus granularis, 85 min, egg division, 85 minutes after fertilization).

For `COc1ccc2c(c1)[C@H]1C=C(C)CC[C@H]1C(C)(C)O2` (relative stereo) [3b], the “antibacterial effect (in words)” value in series [10] and in series [11] was “totally inactive” throughout. The concentration for half-maximal inhibition (IC50) in series [1] (setting [16]) and in series [2] (setting [17]) was above 25 µM each time.

For orientation: MIC means the smallest concentration in the dilution series that meets the test's criterion for growth inhibition. High values mean a less susceptible organism, low ones a more susceptible organism. As to `Cc1ccc2c(c1)-c1cc(O)ccc1OC2(C)C` [4a, didehydroconicol], in series [11], the “antibacterial effect (in words)” value is recorded as “weakly active”. In series [11], this compound gave an MIC of 500 µM (≈ 120 µg/mL). The IC50 in series [1] (setting [16]) was 11.3 ± 0.8 µM; in series [2] (setting [17]), above 25 µM; in [3] (MCF7, 48 h) it was above 100 µM; in [4] (48 h), above 100 µM; in series [5] (L929, 48 h), above 100 µM; in series [6] (48 h), above 100 µM. Moreover, the half-inhibitory concentration (IC50) in [7] (Homo sapiens, 48 h) was above 100 µM. Also, the “activity on egg division (in words)” value in [2] (S. granularis eggs) is “inactive”.

`CC(C)=CCCC1(C)C=Cc2cc(O)ccc2O1` (centres unmarked) [cordiachromene A]: the “growth inhibition (in words)” value in [12], in series [13] and in series [14] was “moderately inhibits” each time.

For `CC1=C[C@@H]2c3cc(O)ccc3OC(C)(C)[C@@H]2CC1` [3a, epiconicol], the “antibacterial effect (in words)” value in series [10] and in [11] was “weakly active” in each case. In addition, the MIC in series [10] (Escherichia coli, 24 h) came to 800 µM (≈ 195 µg/mL); in series [11] it was 100 µM (≈ 24.4 µg/mL). Further, the values for the IC50 in series [2] (setting [17]) and in [15] were 9.8 ± 1.3 µM and 37 to 69 µM, respectively. The cultures killed in series [3] (MCF7, at 5 μM) is 30%; in series [4] (PA1, at 5 μM), 30%.

Regarding `COc1ccc2c(c1)-c1cc(C)ccc1C(C)(C)O2` [4b, O-methyldidehydroconicol], the “antibacterial effect (in words)” value in series [10] and in series [11] was “totally inactive” each time. Besides, the 50% inhibitory concentration (IC50) in series [1] (setting [16]) and in [2] (setting [17]) was above 25 µM each time.
